Paper PMC9487510, “A Novel Oral GyrB/ParE Dual Binding Inhibitor Effective against Multidrug-Resistant Neisseria gonorrhoeae and Other High-Threat Pathogens” (Antimicrobial Agents and Chemotherapy, 2022)
Values after ≈ are worked out from the molar mass of the structure shown.

Tested on: N. gonorrhoeae clinical isolates
Assay: MIC, agar dilution (CLSI)
Format: cell-based, Neisseria gonorrhoeae

SMILES: CN(C)[C@@H]1C(O)=C(C(N)=O)C(=O)[C@@]2(O)C(O)=C3C(=O)c4c(O)cccc4[C@@](C)(O)[C@H]3C[C@@H]12 [Tet, tetracycline]
- MIC range (96 clinical isolates): 0.063 to 16 µg/mL
- MIC50 (Neisseria gonorrhoeae): 1 µg/mL (≈ 2.25 µM)
- MIC90 (Neisseria gonorrhoeae): 1 µg/mL (≈ 2.25 µM)
- MIC (Neisseria gonorrhoeae, strain CDC1 (GCREF2012 016)): 2 µg/mL (≈ 4.5 µM)
- MIC (Neisseria gonorrhoeae, strain CDC2 (GCREF2012 045)): 1 µg/mL (≈ 2.25 µM)
- MIC (Neisseria gonorrhoeae, strain CDC3 (GCREF2013 013)): 1 µg/mL (≈ 2.25 µM)
- MIC (Neisseria gonorrhoeae, strain CDC4 (GCREF2013 030)): 0.5 µg/mL (≈ 1.13 µM)
- MIC (Neisseria gonorrhoeae, strain CDC5 (GCREF2012 001)): 1 µg/mL (≈ 2.25 µM)
- MIC (Neisseria gonorrhoeae, strain CDC6 (GCREF2012 002)): 1 µg/mL (≈ 2.25 µM)
- MIC (Neisseria gonorrhoeae, strain CDC8 (GCREF2012 004)): 1 µg/mL (≈ 2.25 µM)
- MIC (Neisseria gonorrhoeae, strain CDC9 (GCREF2012 005)): 1 µg/mL (≈ 2.25 µM)
- MIC (Neisseria gonorrhoeae, strain CDC10 (GCREF2012 006)): 1 µg/mL (≈ 2.25 µM)
- MIC (Neisseria gonorrhoeae, strain CDC11 (GCREF2012 007)): 1 µg/mL (≈ 2.25 µM)
- MIC (Neisseria gonorrhoeae, strain CDC12 (GCREF2012 008)): 1 µg/mL (≈ 2.25 µM)
- MIC (Neisseria gonorrhoeae, strain CDC13 (GCREF2012 009)): 1 µg/mL (≈ 2.25 µM)
- MIC (Neisseria gonorrhoeae, strain CDC14 (GCREF2012 010)): 1 µg/mL (≈ 2.25 µM)
- MIC (Neisseria gonorrhoeae, strain CDC15 (GCREF2012 011)): 0.5 µg/mL (≈ 1.13 µM)
- MIC (Neisseria gonorrhoeae, strain CDC16 (GCREF2012 012)): 1 µg/mL (≈ 2.25 µM)
- MIC (Neisseria gonorrhoeae, strain CDC18 (GCREF2012 014)): 1 µg/mL (≈ 2.25 µM)
- MIC (Neisseria gonorrhoeae, strain CDC19 (GCREF2012 015)): 0.5 µg/mL (≈ 1.13 µM)
- MIC (Neisseria gonorrhoeae, strain CDC20 (GCREF2012 017)): 1 µg/mL (≈ 2.25 µM)
- MIC (Neisseria gonorrhoeae, strain CDC21 (GCREF2012 018)): 1 µg/mL (≈ 2.25 µM)
- MIC (Neisseria gonorrhoeae, strain CDC22 (GCREF2012 019)): 1 µg/mL (≈ 2.25 µM)
- MIC (Neisseria gonorrhoeae, strain CDC23 (GCREF2012 020)): 1 µg/mL (≈ 2.25 µM)
- MIC (Neisseria gonorrhoeae, strain CDC24 (GCREF2012 021)): 1 µg/mL (≈ 2.25 µM)
- MIC (Neisseria gonorrhoeae, strain CDC25 (GCREF2012 022)): 1 µg/mL (≈ 2.25 µM)
- MIC (Neisseria gonorrhoeae, strain CDC26 (GCREF2012 023)): 0.5 µg/mL (≈ 1.13 µM)
- MIC (Neisseria gonorrhoeae, strain CDC27 (GCREF2012 024)): 1 µg/mL (≈ 2.25 µM)
- MIC (Neisseria gonorrhoeae, strain CDC28 (GCREF2012 025)): 1 µg/mL (≈ 2.25 µM)
- MIC (Neisseria gonorrhoeae, strain CDC29 (GCREF2012 026)): 1 µg/mL (≈ 2.25 µM)
- MIC (Neisseria gonorrhoeae, strain CDC30 (GCREF2012 027)): 1 µg/mL (≈ 2.25 µM)
- MIC (Neisseria gonorrhoeae, strain CDC31 (GCREF2012 028)): 2 µg/mL (≈ 4.5 µM)
- MIC (Neisseria gonorrhoeae, strain CDC32 (GCREF2012 029)): 0.5 µg/mL (≈ 1.13 µM)
- MIC (Neisseria gonorrhoeae, strain CDC33 (GCREF2012 030)): 0.5 µg/mL (≈ 1.13 µM)
- MIC (Neisseria gonorrhoeae, strain CDC34 (GCREF2012 031)): 1 µg/mL (≈ 2.25 µM)
- MIC (Neisseria gonorrhoeae, strain CDC35 (GCREF2012 032)): 2 µg/mL (≈ 4.5 µM)
- MIC (Neisseria gonorrhoeae, strain CDC36 (GCREF2012 033)): 1 µg/mL (≈ 2.25 µM)
- MIC (Neisseria gonorrhoeae, strain CDC37 (GCREF2012 034)): 1 µg/mL (≈ 2.25 µM)
- MIC (Neisseria gonorrhoeae, strain CDC38 (GCREF2012 035)): 1 µg/mL (≈ 2.25 µM)
- MIC (Neisseria gonorrhoeae, strain CDC39 (GCREF2012 036)): 1 µg/mL (≈ 2.25 µM)
- MIC (Neisseria gonorrhoeae, strain CDC40 (GCREF2012 037)): 1 µg/mL (≈ 2.25 µM)
- MIC (Neisseria gonorrhoeae, strain CDC41 (GCREF2012 038)): 1 µg/mL (≈ 2.25 µM)
- MIC (Neisseria gonorrhoeae, strain CDC42 (GCREF2012 039)): 2 µg/mL (≈ 4.5 µM)
- MIC (Neisseria gonorrhoeae, strain CDC43 (GCREF2012 040)): 2 µg/mL (≈ 4.5 µM)
- MIC (Neisseria gonorrhoeae, strain CDC45 (GCREF2012 042)): 2 µg/mL (≈ 4.5 µM)
- MIC (Neisseria gonorrhoeae, strain CDC46 (GCREF2012 043)): 1 µg/mL (≈ 2.25 µM)
- MIC (Neisseria gonorrhoeae, strain CDC47 (GCREF2012 044)): 1 µg/mL (≈ 2.25 µM)
- MIC (Neisseria gonorrhoeae, strain CDC48 (GCREF2012 046)): 1 µg/mL (≈ 2.25 µM)
- MIC (Neisseria gonorrhoeae, strain CDC49 (GCREF2012 047)): 1 µg/mL (≈ 2.25 µM)
- MIC (Neisseria gonorrhoeae, strain CDC50 (GCREF2012 048)): 1 µg/mL (≈ 2.25 µM)
- MIC (Neisseria gonorrhoeae, strain CDC51 (GCREF2012 049)): 1 µg/mL (≈ 2.25 µM)
- MIC (Neisseria gonorrhoeae, strain CDC52 (GCREF2012 050)): 1 µg/mL (≈ 2.25 µM)
- MIC (Neisseria gonorrhoeae, strain CDC53 (GCREF2012 051)): 1 µg/mL (≈ 2.25 µM)
- MIC (Neisseria gonorrhoeae, strain CDC54 (GCREF2012 052)): 1 µg/mL (≈ 2.25 µM)
- MIC (Neisseria gonorrhoeae, strain CDC55 (GCREF2013 001)): 1 µg/mL (≈ 2.25 µM)
- MIC (Neisseria gonorrhoeae, strain CDC56 (GCREF2013 002)): 1 µg/mL (≈ 2.25 µM)
- MIC (Neisseria gonorrhoeae, strain CDC57 (GCREF2013 003)): 0.5 µg/mL (≈ 1.13 µM)
- MIC (Neisseria gonorrhoeae, strain CDC58 (GCREF2013 004)): 1 µg/mL (≈ 2.25 µM)
- MIC (Neisseria gonorrhoeae, strain CDC59 (GCREF2013 044)): 16 µg/mL (≈ 36 µM)
- MIC (Neisseria gonorrhoeae, strain CDC60 (GCREF2013 005)): 1 µg/mL (≈ 2.25 µM)
- MIC (Neisseria gonorrhoeae, strain CDC61 (GCREF2013 006)): 1 µg/mL (≈ 2.25 µM)
- MIC (Neisseria gonorrhoeae, strain CDC62 (GCREF2013 007)): 0.5 µg/mL (≈ 1.13 µM)
- MIC (Neisseria gonorrhoeae, strain CDC63 (GCREF2013 008)): 0.063 µg/mL (≈ 0.142 µM)
- MIC (Neisseria gonorrhoeae, strain CDC64 (GCREF2013 009)): 1 µg/mL (≈ 2.25 µM)
- MIC (Neisseria gonorrhoeae, strain CDC65 (GCREF2013 010)): 0.5 µg/mL (≈ 1.13 µM)
- MIC (Neisseria gonorrhoeae, strain CDC66 (GCREF2013 011)): 0.5 µg/mL (≈ 1.13 µM)
- MIC (Neisseria gonorrhoeae, strain CDC67 (GCREF2013 014)): 1 µg/mL (≈ 2.25 µM)
- MIC (Neisseria gonorrhoeae, strain CDC68 (GCREF2013 016)): 1 µg/mL (≈ 2.25 µM)
- MIC (Neisseria gonorrhoeae, strain CDC69 (GCREF2013 017)): 1 µg/mL (≈ 2.25 µM)
- MIC (Neisseria gonorrhoeae, strain CDC70 (GCREF2013 018)): 1 µg/mL (≈ 2.25 µM)
- MIC (Neisseria gonorrhoeae, strain CDC71 (GCREF2013 019)): 1 µg/mL (≈ 2.25 µM)
- MIC (Neisseria gonorrhoeae, strain CDC72 (GCREF2013 020)): 1 µg/mL (≈ 2.25 µM)
- MIC (Neisseria gonorrhoeae, strain CDC73 (GCREF2013 021)): 1 µg/mL (≈ 2.25 µM)
- MIC (Neisseria gonorrhoeae, strain CDC74 (GCREF2013 022)): 1 µg/mL (≈ 2.25 µM)
- MIC (Neisseria gonorrhoeae, strain CDC75 (GCREF2013 023)): 1 µg/mL (≈ 2.25 µM)
- MIC (Neisseria gonorrhoeae, strain CDC76 (GCREF2013 024)): 1 µg/mL (≈ 2.25 µM)
- MIC (Neisseria gonorrhoeae, strain CDC77 (GCREF2013 025)): 1 µg/mL (≈ 2.25 µM)
- MIC (Neisseria gonorrhoeae, strain CDC78 (GCREF2013 026)): 1 µg/mL (≈ 2.25 µM)
- MIC (Neisseria gonorrhoeae, strain CDC79 (GCREF2013 027)): 1 µg/mL (≈ 2.25 µM)
- MIC (Neisseria gonorrhoeae, strain CDC80 (GCREF2013 028)): 1 µg/mL (≈ 2.25 µM)
- MIC (Neisseria gonorrhoeae, strain CDC81 (GCREF2013 029)): 1 µg/mL (≈ 2.25 µM)
- MIC (Neisseria gonorrhoeae, strain CDC82 (GCREF2013 031)): 0.5 µg/mL (≈ 1.13 µM)
- MIC (Neisseria gonorrhoeae, strain CDC83 (GCREF2013 032)): 0.5 µg/mL (≈ 1.13 µM)
- MIC (Neisseria gonorrhoeae, strain CDC84 (GCREF2013 033)): 0.5 µg/mL (≈ 1.13 µM)
- MIC (Neisseria gonorrhoeae, strain CDC86 (GCREF2013 035)): 0.25 µg/mL (≈ 0.563 µM)
- MIC (Neisseria gonorrhoeae, strain CDC87 (GCREF2013 036)): 1 µg/mL (≈ 2.25 µM)
- MIC (Neisseria gonorrhoeae, strain CDC88 (GCREF2013 037)): 0.5 µg/mL (≈ 1.13 µM)
- MIC (Neisseria gonorrhoeae, strain CDC89 (GCREF2013 038)): 1 µg/mL (≈ 2.25 µM)
- MIC (Neisseria gonorrhoeae, strain CDC90 (GCREF2013 039)): 1 µg/mL (≈ 2.25 µM)
- MIC (Neisseria gonorrhoeae, strain CDC91 (GCREF2013 040)): 1 µg/mL (≈ 2.25 µM)
- MIC (Neisseria gonorrhoeae, strain CDC92 (GCREF2013 041)): 1 µg/mL (≈ 2.25 µM)
- MIC (Neisseria gonorrhoeae, strain CDC93 (GCREF2013 042)): 1 µg/mL (≈ 2.25 µM)
- MIC (Neisseria gonorrhoeae, strain CDC94 (GCREF2013 043)): 0.5 µg/mL (≈ 1.13 µM)
- MIC (Neisseria gonorrhoeae, strain CDC95 (GCREF2013 045)): 1 µg/mL (≈ 2.25 µM)
- MIC (Neisseria gonorrhoeae, strain CDC96 (GCREF2013 046)): 0.5 µg/mL (≈ 1.13 µM)
- MIC (Neisseria gonorrhoeae, strain CDC97 (GCREF2013 047)): 1 µg/mL (≈ 2.25 µM)
- MIC (Neisseria gonorrhoeae, strain CDC98 (GCREF2013 048)): 0.5 µg/mL (≈ 1.13 µM)
- MIC (Neisseria gonorrhoeae, strain CDC99 (GCREF2013 012)): 0.5 µg/mL (≈ 1.13 µM)
- MIC (Neisseria gonorrhoeae, strain CDC100 (GCREF2013 015)): 1 µg/mL (≈ 2.25 µM)
